Experimental data from patent US10253039B2, “Inhibitors of bacterial DNA gyrase with efficacy against gram-negative bacteria” (priority 2014, dated 2019).
In brackets after ≈: the same amount, converted by molar mass.

These compounds were tested on Edwardsiella tarda (assay: MIC, microdilution in 96-well plates). Conditions: not given.
Type: cell-based
Procedure: (§1) A microdilution method in 96-well plates was used and the MIC protocol established by the Clinical Laboratory Standards Institute was followed. From a growing subculture, a 1:10000 inoculum of each strain in Luria-Bertani media was prepared and aliquoted 100 μL in 4 columns of wells, except for the top row wells, which contained 200 μL of inoculum. A solution of gyramide C2 was aliquoted into 3 of the wells containing 200 μL and DMSO was added to the 4th well. The liquid in each of wells was mixed with a multi-channel pipet and 100 μL was transferred to the next well and mixed. The 2-fold dilution was continued down the 96-well plate until 100 μL was left, which was discarded. The plates were incubated at 37° C. with shaking for 16-18 hours. The MIC was determined as the lowest concentration that inhibited growth and had no turbidity by visual inspection.
(§2) Minimum inhibitory concentrations of various gyramide compounds against 20 strains of bacteria were determined using the procedure described above.
Work on `CC(C)Oc1ccc(CN2CC[C@@H](NS(=O)(=O)c3ccc(F)c(C#N)c3)C2)cc1` [Compound 165] yielded an MIC of over 8 µg/mL. `O=S(=O)(N[C@@H]1CCN(Cc2ccc(OC3CC3)cc2)C1)c1ncc[nH]1` [Compound 130] showed an MIC of over 8 µg/mL. In the case of `O=S(=O)(N[C@@H]1CCN(Cc2ccc(-c3ccccc3)cc2)C1)c1cccnc1` [Compound 146], the MIC is reported as over 8 µg/mL. `N#Cc1cc(S(=O)(=O)N[C@@H]2CCN(Cc3ccc(OC4CC4)cc3)C2)ccc1F` [Compound 166] gave an MIC of over 8 µg/mL.

These compounds were tested on E. coli BW25113 (assay: MIC, microdilution in 96-well plates). Conditions: Escherichia coli, BW25113, E. coli BW25113; read-out: MIC.
Type: cell-based
Procedure: as §1, §2
For `CC(C)Oc1ccc(CN2CC[C@@H](NS(=O)(=O)c3ccc(F)c(C#N)c3)C2)cc1` [Compound 165], the MIC was over 8 µg/mL. For `O=S(=O)(N[C@@H]1CCN(Cc2ccc(OC3CC3)cc2)C1)c1ncc[nH]1` [Compound 130], the MIC was over 8 µg/mL. `O=S(=O)(N[C@@H]1CCN(Cc2ccc(-c3ccccc3)cc2)C1)c1cccnc1` [Compound 146] was tested, and the MIC was over 8 µg/mL. Compound `N#Cc1cc(S(=O)(=O)N[C@@H]2CCN(Cc3ccc(OC4CC4)cc3)C2)ccc1F` [Compound 166] has an MIC of over 8 µg/mL.

These compounds were tested on Streptococcus pyogenes (assay: MIC, 20-strain panel). Conditions: not given.
Type: cell-based
Procedure: as §1, §2
Work on `CC(C)Oc1ccc(CN2CC[C@@H](NS(=O)(=O)c3ccc(F)c(C#N)c3)C2)cc1` [Compound 165] yielded an MIC of over 8 µg/mL. In the case of `O=S(=O)(N[C@@H]1CCN(Cc2ccc(OC3CC3)cc2)C1)c1ncc[nH]1` [Compound 130], the MIC is reported as over 8 µg/mL. With `O=S(=O)(N[C@@H]1CCN(Cc2ccc(-c3ccccc3)cc2)C1)c1cccnc1` [Compound 146] the MIC was over 8 µg/mL. For `N#Cc1cc(S(=O)(=O)N[C@@H]2CCN(Cc3ccc(OC4CC4)cc3)C2)ccc1F` [Compound 166], the MIC was over 8 µg/mL.

The compounds below were run on Klebsiella pneumoniae subsp. pneumoniae (assay: MIC, 20-strain panel). Conditions: Klebsiella pneumoniae subsp. pneumoniae.
Type: cell-based
Procedure: as §1, §2
Work on `CC(C)Oc1ccc(CN2CC[C@@H](NS(=O)(=O)c3ccc(F)c(C#N)c3)C2)cc1` [Compound 165] yielded an MIC of over 8 µg/mL. Compound `O=S(=O)(N[C@@H]1CCN(Cc2ccc(OC3CC3)cc2)C1)c1ncc[nH]1` [Compound 130] has an MIC of over 8 µg/mL. In the case of `O=S(=O)(N[C@@H]1CCN(Cc2ccc(-c3ccccc3)cc2)C1)c1cccnc1` [Compound 146], the MIC is reported as over 8 µg/mL. `N#Cc1cc(S(=O)(=O)N[C@@H]2CCN(Cc3ccc(OC4CC4)cc3)C2)ccc1F` [Compound 166] showed an MIC of over 8 µg/mL.

What follows are compounds tested on Staphylococcus epidermidis (assay: MIC, 20-strain panel). Conditions: not given.
Type: cell-based
Procedure: as §1, §2
With `CC(C)Oc1ccc(CN2CC[C@@H](NS(=O)(=O)c3ccc(F)c(C#N)c3)C2)cc1` [Compound 165] the MIC was over 8 µg/mL. For `O=S(=O)(N[C@@H]1CCN(Cc2ccc(OC3CC3)cc2)C1)c1ncc[nH]1` [Compound 130], the MIC was over 8 µg/mL. With `O=S(=O)(N[C@@H]1CCN(Cc2ccc(-c3ccccc3)cc2)C1)c1cccnc1` [Compound 146] the MIC was over 8 µg/mL. `N#Cc1cc(S(=O)(=O)N[C@@H]2CCN(Cc3ccc(OC4CC4)cc3)C2)ccc1F` [Compound 166] showed an MIC of over 8 µg/mL.

The compounds below were run on Shigella flexneri (assay: MIC, 20-strain panel). Conditions: not given.
Type: cell-based
Procedure: as §1, §2
Work on `CC(C)Oc1ccc(CN2CC[C@@H](NS(=O)(=O)c3ccc(F)c(C#N)c3)C2)cc1` [Compound 165] yielded an MIC of over 8 µg/mL. Compound `O=S(=O)(N[C@@H]1CCN(Cc2ccc(OC3CC3)cc2)C1)c1ncc[nH]1` [Compound 130] has an MIC of over 8 µg/mL. With `O=S(=O)(N[C@@H]1CCN(Cc2ccc(-c3ccccc3)cc2)C1)c1cccnc1` [Compound 146] the MIC was over 8 µg/mL. `N#Cc1cc(S(=O)(=O)N[C@@H]2CCN(Cc3ccc(OC4CC4)cc3)C2)ccc1F` [Compound 166] showed an MIC of over 8 µg/mL.

What follows are compounds tested on E. coli MG1655 (assay: MIC, 20-strain panel). Conditions: Escherichia coli, MG1655, E. coli MG1655; read-out: MIC.
Type: cell-based
Procedure: as §1, §2
With `CC(C)Oc1ccc(CN2CC[C@@H](NS(=O)(=O)c3ccc(F)c(C#N)c3)C2)cc1` [Compound 165] the MIC was over 8 µg/mL. `O=S(=O)(N[C@@H]1CCN(Cc2ccc(OC3CC3)cc2)C1)c1ncc[nH]1` [Compound 130] was tested, and the MIC was over 8 µg/mL. For `O=S(=O)(N[C@@H]1CCN(Cc2ccc(-c3ccccc3)cc2)C1)c1cccnc1` [Compound 146], the MIC was over 8 µg/mL. Work on `N#Cc1cc(S(=O)(=O)N[C@@H]2CCN(Cc3ccc(OC4CC4)cc3)C2)ccc1F` [Compound 166] yielded an MIC of over 8 µg/mL.

The compounds below were run on Staphylococcus saprophyticus subsp. saprophyticus (assay: MIC, 20-strain panel). Conditions: not given.
Type: cell-based
Procedure: as §1, §2
In the case of `CC(C)Oc1ccc(CN2CC[C@@H](NS(=O)(=O)c3ccc(F)c(C#N)c3)C2)cc1` [Compound 165], the MIC is reported as over 8 µg/mL. Work on `O=S(=O)(N[C@@H]1CCN(Cc2ccc(OC3CC3)cc2)C1)c1ncc[nH]1` [Compound 130] yielded an MIC of over 8 µg/mL. `O=S(=O)(N[C@@H]1CCN(Cc2ccc(-c3ccccc3)cc2)C1)c1cccnc1` [Compound 146] gave an MIC of over 8 µg/mL. `N#Cc1cc(S(=O)(=O)N[C@@H]2CCN(Cc3ccc(OC4CC4)cc3)C2)ccc1F` [Compound 166] was tested, and the MIC was over 8 µg/mL.

What follows are compounds tested on Streptococcus agalactiae (assay: MIC, 20-strain panel). Conditions: not given.
Type: cell-based
Procedure: as §1, §2
In the case of `CC(C)Oc1ccc(CN2CC[C@@H](NS(=O)(=O)c3ccc(F)c(C#N)c3)C2)cc1` [Compound 165], the MIC is reported as over 8 µg/mL. `O=S(=O)(N[C@@H]1CCN(Cc2ccc(OC3CC3)cc2)C1)c1ncc[nH]1` [Compound 130] was tested, and the MIC was over 8 µg/mL. `O=S(=O)(N[C@@H]1CCN(Cc2ccc(-c3ccccc3)cc2)C1)c1cccnc1` [Compound 146] showed an MIC of over 8 µg/mL. `N#Cc1cc(S(=O)(=O)N[C@@H]2CCN(Cc3ccc(OC4CC4)cc3)C2)ccc1F` [Compound 166] gave an MIC of over 8 µg/mL.

What follows are compounds tested on Staphylococcus aureus subsp. aureus (assay: MIC, 20-strain panel). Conditions: Staphylococcus aureus subsp. aureus, read-out: MIC.
Type: cell-based
Procedure: as §1, §2
Work on `CC(C)Oc1ccc(CN2CC[C@@H](NS(=O)(=O)c3ccc(F)c(C#N)c3)C2)cc1` [Compound 165] yielded an MIC of over 8 µg/mL. Compound `O=S(=O)(N[C@@H]1CCN(Cc2ccc(OC3CC3)cc2)C1)c1ncc[nH]1` [Compound 130] has an MIC of over 8 µg/mL. Work on `O=S(=O)(N[C@@H]1CCN(Cc2ccc(-c3ccccc3)cc2)C1)c1cccnc1` [Compound 146] yielded an MIC of over 8 µg/mL. `N#Cc1cc(S(=O)(=O)N[C@@H]2CCN(Cc3ccc(OC4CC4)cc3)C2)ccc1F` [Compound 166] showed an MIC of over 8 µg/mL.

The compounds below were run on Salmonella enterica subsp. enterica typhimurium (assay: MIC, 20-strain panel). Conditions: Salmonella enterica subsp. enterica Typhimurium.
Type: cell-based
Procedure: as §1, §2
Compound `CC(C)Oc1ccc(CN2CC[C@@H](NS(=O)(=O)c3ccc(F)c(C#N)c3)C2)cc1` [Compound 165] has an MIC of over 8 µg/mL. For `O=S(=O)(N[C@@H]1CCN(Cc2ccc(OC3CC3)cc2)C1)c1ncc[nH]1` [Compound 130], the MIC was about 8 µg/mL (≈ 22.1 µM). `O=S(=O)(N[C@@H]1CCN(Cc2ccc(-c3ccccc3)cc2)C1)c1cccnc1` [Compound 146] showed an MIC of over 8 µg/mL. `N#Cc1cc(S(=O)(=O)N[C@@H]2CCN(Cc3ccc(OC4CC4)cc3)C2)ccc1F` [Compound 166] showed an MIC of about 8 µg/mL (≈ 19.3 µM).

Each compound was assayed on E. coli JW5503 (deltolC) (assay: MIC, 20-strain panel). Conditions: Escherichia coli, E. coli JW5503 (deltolC).
Type: cell-based
Procedure: as §1, §2
In the case of `CC(C)Oc1ccc(CN2CC[C@@H](NS(=O)(=O)c3ccc(F)c(C#N)c3)C2)cc1` [Compound 165], the MIC is reported as 4 µg/mL (≈ 9.58 µM). `O=S(=O)(N[C@@H]1CCN(Cc2ccc(OC3CC3)cc2)C1)c1ncc[nH]1` [Compound 130] was tested, and the MIC was about 8 µg/mL (≈ 22.1 µM). For `O=S(=O)(N[C@@H]1CCN(Cc2ccc(-c3ccccc3)cc2)C1)c1cccnc1` [Compound 146], the MIC was 8 µg/mL (≈ 20.3 µM). In the case of `N#Cc1cc(S(=O)(=O)N[C@@H]2CCN(Cc3ccc(OC4CC4)cc3)C2)ccc1F` [Compound 166], the MIC is reported as 2 µg/mL (≈ 4.81 µM).
